ChEMBL document CHEMBL1157533 (J Med Chem, 2008)

What was measured:
[1] = biological target: Beta-1 adrenergic receptor (Homo sapiens, UniProt P08588); assay: Agonist activity at human recombinant beta-1 adrenergic receptor expressed in CHO cells assessed as cAMP accumulation by enzyme immuno assay; format: functional, cell-based
[2] = biological target: Beta-3 adrenergic receptor (Homo sapiens, UniProt P13945); assay: Agonist activity at human recombinant beta3 adrenergic receptor expressed in CHO cells assessed as cAMP accumulation by enzyme immuno assay; format: functional, cell-based
[3] = biological target: Beta-2 adrenergic receptor (Homo sapiens, UniProt P07550); assay: Agonist activity at human recombinant beta2 adrenergic receptor expressed in CHO cells assessed as cAMP accumulation by enzyme immuno assay; format: functional, cell-based
[4] = Cmax in dog at 0.32 mg/kg, po; format: ADME, organism-based, Canis lupus familiaris; parameters: dose 0.32 mg/kg, route oral; conditions: in vivo
[5] = AUC (0 to 24 hrs) in dog at 0.32 mg/kg, po; format: ADME, organism-based, Canis lupus familiaris; parameters: time < 24 hr, dose 0.32 mg/kg, route oral; conditions: plasma
[6] = Bioavailability in dog at 0.32 mg/kg, po; format: ADME, organism-based, Canis lupus familiaris; conditions: in vivo
[7] = Total clearance in dog at 0.32 mg/kg, iv; format: ADME, organism-based, Canis lupus familiaris; parameters: dose 0.32 mg/kg, route intravenous; conditions: in vivo
[8] = Cmax in rat at 0.26 mg/kg, po by cassette assay; format: ADME, organism-based; parameters: dose 0.26 mg/kg, route oral; conditions: in vivo
[9] = Cmax in monkey at 0.28 mg/kg, po by cassette assay; format: ADME, organism-based, Macaca mulatta; parameters: dose 0.28 mg/kg, route oral; conditions: rhesus monkey, in vivo
[10] = AUC (0 to 24 hrs) in rat at 0.26 mg/kg, po by cassette assay; format: ADME, organism-based; parameters: time < 24 hr, dose 0.26 mg/kg, route oral; conditions: plasma
[11] = AUC (0 to 24 hrs) in monkey at 0.28 mg/kg, po by cassette assay; format: ADME, organism-based, Macaca mulatta; parameters: time < 24 hr, dose 0.28 mg/kg, route oral; conditions: rhesus monkey, plasma
[12] = Bioavailability in rat at 0.26 mg/kg, po by cassette assay; format: ADME, organism-based; conditions: in vivo
[13] = Bioavailability in monkey at 0.28 mg/kg, po by cassette assay; format: ADME, organism-based, Macaca mulatta; conditions: rhesus monkey, in vivo
[14] = Terminal half life in rat plasma at 0.26 mg/kg, iv by cassette assay; format: ADME, organism-based; parameters: dose 0.26 mg/kg, route intravenous; conditions: read-out: beta t1/2 (converted)
[15] = Terminal half life in monkey plasma at 0.28 mg/kg, iv by cassette assay; format: ADME, organism-based, Macaca mulatta; parameters: dose 0.28 mg/kg, route intravenous; conditions: rhesus monkey, read-out: beta t1/2 (converted)
[16] = Total clearance in rat at 0.26 mg/kg, iv by cassette assay; format: ADME, organism-based; parameters: dose 0.26 mg/kg, route intravenous; conditions: in vivo
[17] = Total clearance in monkey at 0.28 mg/kg, iv by cassette assay; format: ADME, organism-based, Macaca mulatta; parameters: dose 0.28 mg/kg, route intravenous; conditions: rhesus monkey, in vivo
[18] = biological target: Beta-3 adrenergic receptor (Canis lupus familiaris, UniProt O02662); assay: Agonist activity at dog recombinant beta3 adrenergic receptor expressed in CHO cells assessed as cAMP accumulation by enzyme immuno assay; format: functional, cell-based
[19] = Protein binding in Beagle dog serum; format: ADME, cell-free, Canis lupus familiaris; conditions: read-out: PPB (converted)
[20] = Bioavailability in rat at 1.0 mg/kg, po; format: ADME, organism-based; conditions: in vivo
[21] = Cmax in rat at 1.0 mg/kg, po; format: ADME, organism-based; parameters: dose 1 mg/kg, route oral; conditions: in vivo
[22] = Cmax in monkey at 0.27 mg/kg, po by cassette assay; format: ADME, organism-based, Macaca mulatta; parameters: dose 0.27 mg/kg, route oral; conditions: rhesus monkey, in vivo
[23] = AUC (0 to 24 hrs) in rat at 1.0 mg/kg, po; format: ADME, organism-based; parameters: time < 24 hr, dose 1 mg/kg, route oral; conditions: plasma
[24] = AUC (0 to 24 hrs) in monkey at 0.27 mg/kg, po by cassette assay; format: ADME, organism-based, Macaca mulatta; parameters: time < 24 hr, dose 0.27 mg/kg, route oral; conditions: rhesus monkey, plasma
[25] = Bioavailability in monkey at 0.27 mg/kg, po by cassette assay; format: ADME, organism-based, Macaca mulatta; conditions: rhesus monkey, in vivo
[26] = Terminal half life in rat plasma at 1.0 mg/kg, iv; format: ADME, organism-based; parameters: dose 1 mg/kg, route intravenous; conditions: read-out: beta t1/2 (converted)
[27] = Terminal half life in dog plasma at 0.32 mg/kg, iv; format: ADME, organism-based, Canis lupus familiaris; parameters: dose 0.32 mg/kg, route intravenous; conditions: read-out: beta t1/2 (converted)
[28] = Terminal half life in monkey plasma at 0.27 mg/kg, iv by cassette assay; format: ADME, organism-based, Macaca mulatta; parameters: dose 0.27 mg/kg, route intravenous; conditions: rhesus monkey, read-out: beta t1/2 (converted)
[29] = Total clearance in rat at 1.0 mg/kg, iv; format: ADME, organism-based; parameters: dose 1 mg/kg, route intravenous; conditions: in vivo
[30] = Total clearance in monkey at 0.27 mg/kg, iv by cassette assay; format: ADME, organism-based, Macaca mulatta; parameters: dose 0.27 mg/kg, route intravenous; conditions: rhesus monkey, in vivo
[31] = organism: Canis familiaris; assay: cells; conditions: Canis lupus familiaris, 3 h
Description: Inhibition of carbachol-induced increase in intravesical pressure in intraduodenally dosed Beagle dog OAB model for 180 mins

[32] = Cmax in dog at 0.1 mg/kg, po; format: ADME, organism-based, Canis lupus familiaris; parameters: dose 0.1 mg/kg, route oral; conditions: in vivo
[33] = Bioavailability in dog at 0.1 mg/kg, po; format: ADME, organism-based, Canis lupus familiaris; conditions: in vivo
[34] = Total clearance in dog at 0.1 mg/kg, iv; format: ADME, organism-based, Canis lupus familiaris; parameters: dose 0.1 mg/kg, route intravenous; conditions: in vivo
[35] = Cmax in monkey at 0.30 mg/kg, po by cassette assay; format: ADME, organism-based, Macaca mulatta; parameters: dose 0.3 mg/kg, route oral; conditions: rhesus monkey, in vivo, 0.3 mg/kg
[36] = AUC (0 to 24 hrs) in monkey at 0.30 mg/kg, po by cassette assay; format: ADME, organism-based, Macaca mulatta; parameters: time < 24 hr, dose 0.3 mg/kg, route oral; conditions: rhesus monkey, plasma, 0.3 mg/kg
[37] = Bioavailability in monkey at 0.30 mg/kg, po by cassette assay; format: ADME, organism-based, Macaca mulatta; conditions: rhesus monkey, in vivo, 0.3 mg/kg
[38] = Total clearance in monkey at 0.30 mg/kg, iv by cassette assay; format: ADME, organism-based, Macaca mulatta; parameters: dose 0.3 mg/kg, route intravenous; conditions: rhesus monkey, in vivo, 0.3 mg/kg
[39] = AUC (0 to 24 hrs) in dog at 0.1 mg/kg, po; format: ADME, organism-based, Canis lupus familiaris; parameters: time < 24 hr, dose 0.1 mg/kg, route oral; conditions: plasma

Sequence of Beta-2 adrenergic receptor (P07550 whole entry): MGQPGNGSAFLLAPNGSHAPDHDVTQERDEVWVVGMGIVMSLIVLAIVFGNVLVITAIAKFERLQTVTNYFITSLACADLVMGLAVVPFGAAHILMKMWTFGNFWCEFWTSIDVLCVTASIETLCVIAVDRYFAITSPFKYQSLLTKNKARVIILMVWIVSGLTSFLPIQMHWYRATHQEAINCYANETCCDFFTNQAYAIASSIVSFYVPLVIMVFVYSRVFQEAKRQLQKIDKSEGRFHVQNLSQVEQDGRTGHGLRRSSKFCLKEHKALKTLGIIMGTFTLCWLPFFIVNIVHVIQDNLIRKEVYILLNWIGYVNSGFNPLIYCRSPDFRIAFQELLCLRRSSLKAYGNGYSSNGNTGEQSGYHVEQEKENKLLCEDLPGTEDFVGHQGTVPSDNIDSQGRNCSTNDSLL
Sequence of Beta-3 adrenergic receptor (Canis lupus familiaris, UniProt O02662) (O02662 whole entry): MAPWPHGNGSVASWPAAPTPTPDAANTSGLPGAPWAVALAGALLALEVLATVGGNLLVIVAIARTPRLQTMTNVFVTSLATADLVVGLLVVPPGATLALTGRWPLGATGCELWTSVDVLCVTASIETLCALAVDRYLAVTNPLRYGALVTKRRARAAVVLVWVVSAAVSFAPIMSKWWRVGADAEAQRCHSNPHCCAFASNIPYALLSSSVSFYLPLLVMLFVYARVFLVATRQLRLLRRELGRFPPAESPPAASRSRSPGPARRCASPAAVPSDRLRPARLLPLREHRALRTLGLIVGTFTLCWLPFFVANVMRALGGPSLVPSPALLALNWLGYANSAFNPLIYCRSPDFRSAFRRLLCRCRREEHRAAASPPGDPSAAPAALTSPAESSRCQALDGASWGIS
Sequence of Beta-3 adrenergic receptor (Homo sapiens, UniProt P13945) (P13945 whole entry): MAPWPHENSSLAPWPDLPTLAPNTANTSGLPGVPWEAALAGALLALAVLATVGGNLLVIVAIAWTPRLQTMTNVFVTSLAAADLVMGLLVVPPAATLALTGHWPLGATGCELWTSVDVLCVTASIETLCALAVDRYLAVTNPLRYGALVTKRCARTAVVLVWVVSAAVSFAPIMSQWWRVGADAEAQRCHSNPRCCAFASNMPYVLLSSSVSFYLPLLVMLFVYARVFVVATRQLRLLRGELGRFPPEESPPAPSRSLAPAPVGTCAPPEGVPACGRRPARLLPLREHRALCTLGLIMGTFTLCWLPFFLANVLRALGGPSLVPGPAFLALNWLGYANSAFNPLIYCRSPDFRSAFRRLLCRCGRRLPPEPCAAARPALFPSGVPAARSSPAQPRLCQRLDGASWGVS
Sequence of Beta-1 adrenergic receptor (P08588 whole entry): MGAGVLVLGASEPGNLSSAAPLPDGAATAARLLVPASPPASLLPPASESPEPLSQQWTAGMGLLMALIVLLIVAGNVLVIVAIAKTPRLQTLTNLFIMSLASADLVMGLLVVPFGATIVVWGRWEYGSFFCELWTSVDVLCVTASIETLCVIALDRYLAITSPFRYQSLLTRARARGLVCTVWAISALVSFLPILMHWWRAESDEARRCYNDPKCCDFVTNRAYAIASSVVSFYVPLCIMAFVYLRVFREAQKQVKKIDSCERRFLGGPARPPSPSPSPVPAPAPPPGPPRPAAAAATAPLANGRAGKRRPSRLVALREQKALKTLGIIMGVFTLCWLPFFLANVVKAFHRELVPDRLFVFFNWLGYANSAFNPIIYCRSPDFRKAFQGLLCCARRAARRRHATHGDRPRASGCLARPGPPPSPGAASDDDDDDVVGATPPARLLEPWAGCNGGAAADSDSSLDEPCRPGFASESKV

With `O=C(O)c1ccc(-c2ccc(CCNC[C@H](O)c3cccnc3)cc2)cc1OC1CCCCC1` the EC50 [1] was 480 nM, the EC50 [2] was 0.26 nM and the EC50 [3] was > 10000 nM. It also gave a Cmax [4] of 11.4 ng/mL, an AUC(0-t) at 24 h [5] of 58.1 ng·h/mL and a bioavailability [6] of 60%. For the same molecule, the clearance [7] was 47.7 mL/min/kg, the Cmax [8] was 72.4 ng/mL and the Cmax [9] was 18.6 ng/mL. The AUC(0-t) at 24 h [10] was 245 ng·h/mL, the AUC(0-t) at 24 h [11] was 153 ng·h/mL and the bioavailability [12] was 82.5%. For the same molecule, the bioavailability [13] was 10.7%, the half-life [14] was 3.3 h and the half-life [15] was 10.3 h. It also gave a clearance [16] of 15.8 mL/min/kg, a clearance [17] of 3.4 mL/min/kg and an EC50 [18] of 1.3 nM. The fraction unbound [19] was 0.1.
In the case of `CC(C)Oc1cc(-c2ccc(CCNC[C@H](O)c3cccnc3)cc2)ccc1C(=O)O`, the EC50 [1] is reported as > 1000 nM, the EC50 [2] is reported as 1.5 nM and the EC50 [3] is reported as > 10000 nM. For the same molecule, the bioavailability [20] was 61.5%, the Cmax [21] was 172 ng/mL and the Cmax [4] was 27 ng/mL. The Cmax [22] was 11 ng/mL, the AUC(0-t) at 24 h [23] was 548 ng·h/mL and the AUC(0-t) at 24 h [5] was 461 ng·h/mL. The AUC(0-t) at 24 h [24] was 77.5 ng·h/mL, the bioavailability [6] was 63.2% and the bioavailability [25] was 25.7%. For the same molecule, the half-life [26] was 3.5 h, the half-life [27] was 9.9 h and the half-life [28] was 2.2 h. It also gave a clearance [29] of 16 mL/min/kg, a clearance [7] of 6.4 mL/min/kg and a clearance [30] of 22.8 mL/min/kg. The EC50 [18] was 11 nM, the fraction unbound [19] was 0.23 and the EC50 [31] was 7.8 nM. For the same molecule, the ED50 [31] was 0.0284 mg/kg.
With `CCCOc1cc(-c2ccc(C[C@@H](C)NC[C@H](O)c3cccnc3)cc2)ccc1C(=O)O` the EC50 [1] was 190 nM, the EC50 [2] was 0.064 nM and the EC50 [3] was > 1000 nM. For the same molecule, the Cmax [32] was 3 ng/mL, the bioavailability [33] was 54.9% and the clearance [34] was 24.3 mL/min/kg. The Cmax [35] was 8.2 ng/mL, the AUC(0-t) at 24 h [36] was 65.2 ng·h/mL and the bioavailability [37] was 57.2%. For the same molecule, the clearance [38] was 47 mL/min/kg, the EC50 [18] was 0.51 nM and the fraction unbound [19] was 0.18. The AUC(0-t) at 24 h [39] was 35.5 ng·h/mL, the EC50 [31] was 0.28 nM and the ED50 [31] was 0.0048 mg/kg.
